In brackets after ≈: the same amount, converted by molar mass.
What was measured:
[1] = target: T1, Bromodomain-containing protein 4 (Homo sapiens, UniProt O60885); experiment: Displacement of Alexa647-labeled JQ1 derivative from wild type BRD4 tandem domain (44 to 460 residues) (unknown origin) incubated for 1 hr by fluorescence polarization assay
[2] = target: T1, Bromodomain-containing protein 4; experiment: Inhibition of BRD4 in human MCF7 cells assessed as down regulation of ERalpha after 18 to 24 hrs by Hoechst staining based cellomics arrayscan analysis; assay type: cell-based
[3] = target: T1, Bromodomain-containing protein 4; experiment: Inhibition of BRD4 in human MM1S cells assessed as down regulation of c-Myc incubated for 16 hrs by flow cytometry; assay type: cell-based
[4] = test system: MM1.S; experiment: Growth inhibition of human MM1S cells after 72 hrs by alamar blue assay; assay type: functional
[5] = Lipophilicity, log D of compound at pH 7.4; assay type: physicochemical; conditions: buffer
[6] = Dissociation constant, basic pKa of compound; assay type: physicochemical
[7] = Thermodynamic solubility of compound in pH 7.4 solution; assay type: physicochemical; conditions: buffer, read-out: Therm_solubility
[8] = Intrinsic clearance in human hepatocytes assessed per million cells; assay type: ADME, cell-based, Hepatocyte; conditions: read-out: CLH
[9] = Apparent permeability from apical to basolateral side in human Caco2 cells; assay type: ADME, cell-based; conditions: Caco-2
[10] = Unbound fraction in rat plasma; assay type: ADME, cell-free
[11] = Unbound fraction in dog plasma; assay type: ADME, cell-free, Canis lupus familiaris
[12] = Unbound fraction in human plasma; assay type: ADME, cell-free
[13] = Intrinsic clearance in dog hepatocytes assessed per million cells; assay type: ADME, cell-based, Canis lupus familiaris, Hepatocyte; conditions: read-out: CLH
[14] = Intrinsic clearance in rat hepatocytes assessed per million cells; assay type: ADME, cell-based, Hepatocyte; conditions: read-out: CLH
[15] = Plasma clearance in rat; assay type: ADME
[16] = Volume of distribution at steady state in rat; assay type: ADME; conditions: in vivo, read-out: Vdss
[17] = Oral bioavailability in rat; assay type: ADME, organism-based; conditions: in vivo
[18] = Plasma clearance in dog; assay type: ADME, Canis lupus familiaris
[19] = Volume of distribution at steady state in dog; assay type: ADME, Canis lupus familiaris; conditions: in vivo, read-out: Vdss
[20] = Oral bioavailability in dog; assay type: ADME, organism-based, Canis lupus familiaris; conditions: in vivo
[21] = target: Bromodomain-containing protein 4 (Homo sapiens, UniProt O60885, N140A)
[22] = target: Bromodomain-containing protein 4 (Homo sapiens, UniProt O60885, N433A)
[23] = target: T1, Bromodomain-containing protein 4; experiment: Inhibition of BRD4 in human LNCAP cells assessed as down regulation of nuclear AR level by immunofluorescence assay; assay type: cell-based
[24] = target: Transcription initiation factor TFIID subunit 1 (Homo sapiens, UniProt P21675); experiment: Inhibition of human TAF1 bromodomain 2 expressed in bacterial expression system
[25] = test system: Mus musculus; experiment: In vivo inhibition of BRD4 in SCID mouse xenografted with human MV4-11 cells assessed as free plasma concentration required to decrease c-Myc expression in tumor at 10 mg/kg, po administered as single dose measured after 8 hrs by qPCR method; assay type: functional
[26] = test system: MV4-11; experiment: Antitumor activity against human MV4-11 cells xenografted in SCID mouse assessed as tumor growth inhibition at 10 mg/kg, po administered daily through oral gavage for 14 days measured twice per week during compound dosing relative to control; assay type: functional; conditions: MV4-11, po, 336 h, read-out: TGI
[27] = Toxicity in SCID mouse xenografted with human MV4-11 cells assessed as body weight loss at 10 mg/kg, po administered daily through oral gavage for 14 days relative to control; assay type: organism-based; conditions: in vivo, 336 h
[28] = Metabolic stability in hepatic microsomes; assay type: ADME, Liver, Microsome
[29] = target: T2, Bromodomain-containing protein 2 (Homo sapiens, UniProt P25440); experiment: Inhibition of human BRD2 bromodomain 1 expressed in bacterial expression system
T2 sequence (P25440 whole entry): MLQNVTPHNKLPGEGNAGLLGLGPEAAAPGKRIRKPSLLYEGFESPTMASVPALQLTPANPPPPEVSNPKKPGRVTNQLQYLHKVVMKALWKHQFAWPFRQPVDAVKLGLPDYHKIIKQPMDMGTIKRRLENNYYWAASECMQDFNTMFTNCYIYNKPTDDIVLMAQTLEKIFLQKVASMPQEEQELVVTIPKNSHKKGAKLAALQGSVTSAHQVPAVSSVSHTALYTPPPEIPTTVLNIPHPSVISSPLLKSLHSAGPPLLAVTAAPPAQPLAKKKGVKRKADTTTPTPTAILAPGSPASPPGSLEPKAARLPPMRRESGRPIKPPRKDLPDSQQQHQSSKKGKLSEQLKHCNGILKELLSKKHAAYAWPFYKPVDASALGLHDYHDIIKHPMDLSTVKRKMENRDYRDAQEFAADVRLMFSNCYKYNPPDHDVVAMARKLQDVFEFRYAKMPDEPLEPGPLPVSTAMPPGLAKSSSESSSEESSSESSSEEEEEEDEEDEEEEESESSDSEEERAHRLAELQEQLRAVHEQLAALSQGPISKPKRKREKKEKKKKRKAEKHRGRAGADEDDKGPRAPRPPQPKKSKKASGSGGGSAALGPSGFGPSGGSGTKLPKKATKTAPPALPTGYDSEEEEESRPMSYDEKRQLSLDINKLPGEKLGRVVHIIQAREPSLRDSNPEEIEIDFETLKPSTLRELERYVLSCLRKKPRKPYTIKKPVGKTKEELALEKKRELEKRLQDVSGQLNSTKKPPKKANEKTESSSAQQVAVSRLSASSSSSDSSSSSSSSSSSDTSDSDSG

[30] = target: T3, Bromodomain-containing protein 3 (Homo sapiens, UniProt Q15059); experiment: Inhibition of human BRD3 bromodomain 1 expressed in bacterial expression system
T3 sequence (Q15059 whole entry): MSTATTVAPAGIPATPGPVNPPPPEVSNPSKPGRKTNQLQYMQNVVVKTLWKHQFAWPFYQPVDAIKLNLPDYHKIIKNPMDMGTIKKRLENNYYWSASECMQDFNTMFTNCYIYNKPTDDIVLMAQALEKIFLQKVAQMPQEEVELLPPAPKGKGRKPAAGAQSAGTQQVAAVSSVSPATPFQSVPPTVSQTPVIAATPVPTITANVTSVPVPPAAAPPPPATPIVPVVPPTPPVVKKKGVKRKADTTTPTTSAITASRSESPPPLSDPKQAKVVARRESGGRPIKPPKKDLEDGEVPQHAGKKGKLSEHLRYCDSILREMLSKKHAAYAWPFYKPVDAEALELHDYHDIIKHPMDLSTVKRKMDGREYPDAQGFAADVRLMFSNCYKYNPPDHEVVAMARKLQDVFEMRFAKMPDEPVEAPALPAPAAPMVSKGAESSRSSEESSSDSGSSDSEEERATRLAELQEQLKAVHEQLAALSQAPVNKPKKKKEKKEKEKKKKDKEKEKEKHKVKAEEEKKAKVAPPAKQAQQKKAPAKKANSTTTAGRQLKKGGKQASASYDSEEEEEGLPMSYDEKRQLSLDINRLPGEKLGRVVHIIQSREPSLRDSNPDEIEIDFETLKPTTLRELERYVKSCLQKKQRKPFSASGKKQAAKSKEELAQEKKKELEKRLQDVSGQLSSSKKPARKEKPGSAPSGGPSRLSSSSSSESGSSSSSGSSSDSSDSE

[31] = target: T1, Bromodomain-containing protein 4; experiment: Inhibition of human BRD4 bromodomain 1 expressed in bacterial expression system
[32] = target: T4, Bromodomain testis-specific protein (Homo sapiens, UniProt Q58F21); experiment: Inhibition of human BRDT bromodomain 1 expressed in bacterial expression system
[33] = target: T1, Bromodomain-containing protein 4; experiment: Inhibition of human BRD4 bromodomain 2 expressed in bacterial expression system
[34] = target: T2, Bromodomain-containing protein 2; experiment: Inhibition of human BRD2 bromodomain 2 expressed in bacterial expression system
[35] = target: T4, Bromodomain testis-specific protein; experiment: Inhibition of human BRDT bromodomain 2 expressed in bacterial expression system
[36] = target: T3, Bromodomain-containing protein 3; experiment: Inhibition of human BRD3 bromodomain 2 expressed in bacterial expression system
[37] = target: T5, Bromodomain-containing protein 9 (Homo sapiens, UniProt Q9H8M2); experiment: Inhibition of human BRD9 expressed in bacterial expression system
T5 sequence (Q9H8M2 whole entry): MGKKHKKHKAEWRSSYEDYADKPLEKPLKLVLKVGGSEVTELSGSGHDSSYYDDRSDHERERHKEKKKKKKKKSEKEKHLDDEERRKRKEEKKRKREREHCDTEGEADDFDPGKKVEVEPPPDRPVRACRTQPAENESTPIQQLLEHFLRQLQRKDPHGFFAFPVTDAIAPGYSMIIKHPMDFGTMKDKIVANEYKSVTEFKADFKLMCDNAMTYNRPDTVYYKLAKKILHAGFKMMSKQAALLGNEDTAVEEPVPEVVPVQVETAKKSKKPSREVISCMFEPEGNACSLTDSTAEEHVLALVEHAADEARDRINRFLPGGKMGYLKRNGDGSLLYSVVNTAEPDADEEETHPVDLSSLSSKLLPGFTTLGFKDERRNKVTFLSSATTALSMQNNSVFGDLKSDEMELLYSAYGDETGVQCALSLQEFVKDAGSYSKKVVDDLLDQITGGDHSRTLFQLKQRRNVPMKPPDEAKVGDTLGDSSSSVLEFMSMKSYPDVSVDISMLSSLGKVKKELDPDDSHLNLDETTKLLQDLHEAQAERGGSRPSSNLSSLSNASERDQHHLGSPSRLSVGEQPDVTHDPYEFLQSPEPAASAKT

[38] = target: CREB-binding protein (Homo sapiens, UniProt Q92793); experiment: Inhibition of human CREBBP expressed in bacterial expression system
[39] = target: Histone acetyltransferase p300 (Homo sapiens, UniProt Q09472); experiment: Inhibition of human EP300 expressed in bacterial expression system
[40] = target: Transcription initiation factor TFIID subunit 1-like (Homo sapiens, UniProt Q8IZX4); experiment: Inhibition of human TAF1L bromodomain 2 expressed in bacterial expression system
Sequence of Transcription initiation factor TFIID subunit 1-like (Q8IZX4 whole entry): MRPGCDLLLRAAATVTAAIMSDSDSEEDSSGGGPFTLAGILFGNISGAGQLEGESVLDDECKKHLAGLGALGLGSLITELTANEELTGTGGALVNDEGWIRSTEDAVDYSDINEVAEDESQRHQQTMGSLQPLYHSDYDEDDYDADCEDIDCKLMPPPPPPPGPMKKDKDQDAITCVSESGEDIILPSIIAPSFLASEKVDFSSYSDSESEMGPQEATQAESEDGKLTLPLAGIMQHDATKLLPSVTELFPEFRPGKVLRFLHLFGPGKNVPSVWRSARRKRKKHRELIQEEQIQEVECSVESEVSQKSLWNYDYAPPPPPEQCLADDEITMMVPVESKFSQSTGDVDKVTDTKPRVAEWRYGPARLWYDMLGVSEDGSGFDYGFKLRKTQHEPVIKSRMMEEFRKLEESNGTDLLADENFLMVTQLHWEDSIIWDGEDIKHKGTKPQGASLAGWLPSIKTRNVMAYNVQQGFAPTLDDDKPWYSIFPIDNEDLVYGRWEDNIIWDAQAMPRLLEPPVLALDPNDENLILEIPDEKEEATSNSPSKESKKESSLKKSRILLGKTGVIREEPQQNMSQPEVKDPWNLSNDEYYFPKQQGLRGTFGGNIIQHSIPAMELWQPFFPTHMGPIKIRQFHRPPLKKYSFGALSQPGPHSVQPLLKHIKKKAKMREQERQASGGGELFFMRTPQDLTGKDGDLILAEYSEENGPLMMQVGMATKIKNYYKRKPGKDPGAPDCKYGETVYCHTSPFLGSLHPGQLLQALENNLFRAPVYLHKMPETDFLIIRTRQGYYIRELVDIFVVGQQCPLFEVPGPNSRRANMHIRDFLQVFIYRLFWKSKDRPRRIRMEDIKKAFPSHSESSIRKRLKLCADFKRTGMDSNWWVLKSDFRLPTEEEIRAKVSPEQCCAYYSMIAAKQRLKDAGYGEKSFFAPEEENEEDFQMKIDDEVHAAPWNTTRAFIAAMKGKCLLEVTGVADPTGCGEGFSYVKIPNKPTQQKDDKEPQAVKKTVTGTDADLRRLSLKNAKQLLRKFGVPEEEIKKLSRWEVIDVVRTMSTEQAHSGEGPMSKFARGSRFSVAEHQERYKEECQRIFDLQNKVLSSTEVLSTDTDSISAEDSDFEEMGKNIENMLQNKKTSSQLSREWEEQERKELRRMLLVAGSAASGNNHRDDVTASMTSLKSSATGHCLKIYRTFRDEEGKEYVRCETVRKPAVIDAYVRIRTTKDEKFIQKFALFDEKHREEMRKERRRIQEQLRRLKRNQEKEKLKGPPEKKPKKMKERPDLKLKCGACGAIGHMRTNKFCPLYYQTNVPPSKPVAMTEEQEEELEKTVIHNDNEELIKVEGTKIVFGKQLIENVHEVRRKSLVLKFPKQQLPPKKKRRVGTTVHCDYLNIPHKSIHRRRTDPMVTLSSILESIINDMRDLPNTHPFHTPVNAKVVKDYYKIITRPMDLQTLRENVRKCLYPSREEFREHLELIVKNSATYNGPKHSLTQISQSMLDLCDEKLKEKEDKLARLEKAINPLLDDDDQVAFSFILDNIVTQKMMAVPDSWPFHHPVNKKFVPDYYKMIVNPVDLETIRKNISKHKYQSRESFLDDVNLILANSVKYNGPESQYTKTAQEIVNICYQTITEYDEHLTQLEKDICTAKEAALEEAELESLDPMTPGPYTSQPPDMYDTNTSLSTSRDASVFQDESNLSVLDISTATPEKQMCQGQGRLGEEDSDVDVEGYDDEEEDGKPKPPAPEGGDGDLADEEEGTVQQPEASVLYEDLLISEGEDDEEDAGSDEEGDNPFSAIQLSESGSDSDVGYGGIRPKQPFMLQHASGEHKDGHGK

Row | SMILES | Ki [1] [nM] | IC50 [2] [nM] | IC50 [3] [nM] | GI50 [4] [nM] | logD [5] | solubility thermodynamic [7] [µM] | hepatocyte CLint [8] [µL/min/1e6 cells] | Papp A→B [9] [×10⁻⁶ cm/s] | fraction unbound [10] | fraction unbound [11] | fraction unbound [12] | hepatocyte CLint [13] [µL/min/1e6 cells] | hepatocyte CLint [14] [µL/min/1e6 cells] | clearance [15] [mL/min/kg] | Vd [16] [L/kg] | bioavailability [17] [%] | clearance [18] [mL/min/kg] | Vd [19] [L/kg] | bioavailability [20] [%] | Ki [21] [nM] | also measured
1 | COc1nnc2ccc(N3CCC(c4ccc(CCN5CCN(C)C(=O)[C@H]5C)cc4)CC3)nn12 | 3.16 | 25.1 | 10 | 5.01 | 2.5 | 280 to 570 (≈ 130 to 264 µg/mL) | 2 to 2.2 | 28 | 0.02 | 0.24 | 0.25 | < 1 | < 1 | 3 | 0.7 | 72 | 3 | 0.9 | 98 | 126 | pKa [6]: 6.3; Ki [22]: 100 nM
2 | COc1nnc2ccc(N3CCC(c4ccc(OCCN5CCN(C)C(=O)[C@H]5C)cc4)CC3)nn12 [AZD-5153] | 5.01 | 25.1 | 12.6 | 5.01 | 2.3 | 1600 to 1650 (≈ 767 to 791 µg/mL) | 3.5 to 4 | 40 | 0.04 | 0.24 | 0.23 | < 1 | 5 | 4 | 0.9 | 81 | 6 | 0.4 | 55 | 158 | IC50 [23]: 20 nM; Ki [24]: 1260 nM; Cp(f) [25]: <0.2 µM; inhibition in vivo at 10 mg/kg [26]: > 100%; Activity [27]: 8%; Stability [28]: Stable; Ki [29]: 100 nM; Ki [30]: 63.1 nM; Ki [31]: 50.1 nM; Ki [32]: 100 nM; Ki [33]: 126 nM; Ki [34]: 251 nM; Ki [35]: 501 nM; Ki [36]: 398 nM; Ki [37]: 2510 nM; Ki [38]: 6310 nM; Ki [39]: < 10000 nM; Ki [40]: 2510 nM; Ki [22]: 126 nM
3 | COc1nnc2ccc(N3CCC(c4ccc(OCCN5[C@H](C)CN(C(C)=O)C[C@@H]5C)cc4)CC3)nn12 | 1.58 | 1.58 | < 2 | < 2 | 2.5 | > 1000 | 12 | 30 | 0.06 | 0.16 | 0.19 | 7 | 13 | 17 | 1.5 | 40 | 11 | 0.6 | 28 | 15.8 | pKa [6]: 6.2; Ki [22]: 50.1 nM
4 | COc1nnc2ccc(N3CCC(c4ccc(N5CC(CN6CCN(C)C(=O)[C@H]6C)C5)cc4)CC3)nn12 | 10 | 3.98 | < 2 | 1.58 | 1.7 | 460 to 1000 (≈ 232 to 505 µg/mL) | 4 to 4.1 | 46 | 0.05 | 0.27 | 0.32 | 3 | < 1 | 7 | 1.61 | 57 | 5 | 0.7 | 73 | 100 | pKa [6]: 5.9; Ki [22]: 158 nM

Reference: ChEMBL document CHEMBL4431353, “Optimization of a Series of Bivalent Triazolopyridazine Based Bromodomain and Extraterminal Inhibitors: The Discovery of (3R)-4-[2-[4-[1-(3-Methoxy-[1,2,4]triazolo[4,3-b]pyridazin-6-yl)-4-piperidyl]phenoxy]ethyl]-1,3-dimethyl-piperazin-2-one (AZD5153)” (J Med Chem, 2016)
